Assays:
collagen in ulcer tissue = assay: Collagen deposition in chronic skin lesions of adriamycin-treated rats, Ladewig staining; type: in vivo, rat; conditions: 10 mg/kg BW o.d. p.o., normal skin = 0, no blue staining = −10
Method: Vehicle: • DEPO—DMSO, Ethanol, Peanut Oil 5/3/92 (V/V/V) o.d., p.o., 5 ml/kg BW
Day 0: • Animal randomization, marking, inhalation anesthesia: isoflurane, O2, N2O mixture, shaving of lower back, the animals remain on warming pads in order to avoid cooling down during the adriamycin injection, pain prevention with Temgesic s.c.
Depot set: 3 intradermal injections of 0.15 ml adriamycin (2 mg/ml) per animal in front and rear back, size measurement of the depot via caliper.
(§1) On day 2, 4, 7, 9, 11, 14, 16, 18, 21, 23, 25 and 28 • inhalation anesthesia: isoflurane, O2, N2O mixture • size measurement of the depot and photos Day 28 section • inhalation anesthesia: isoflurane, O2, N2O mixture under anesthesia and then dislocation of the cervical spine • size measurement of the depot and the incision wound and photos • Former depots were harvested by punch biopsies • Wound 1/custodian of any animal->in liquid N2 for peroxidase and elastase determination • Wound 2/custodian of any animal->in liquid N2 for Hydroxyproline determination • Wound 3/custodian of any animal->in formalin fixed for histological studies • Samples were stored for further procedures at −80° C.
Paraffin-embedded skin samples: the skin piece is placed with the downside on a piece of cork and 4 with needles and transferred into formalin (3.7% in PBS). […]

[1] = tested on: collagen type I and collagen type III in ulcer tissue; assay: Collagen type I and III in lesions of pressure-applied mouse skin, Sirius red staining; type: in vivo; conditions: for Collagen type I / Collagen type III: pressure-applied mouse skin, day 3 to 15, Sirius red
Source text: OBJECTIVE: Pressure ulcers (decubitus ulcers) represents a large subgroup of chronic wounds. They mainly affect aged or neurologically immobilized patients. Continuous pressure at discrete skin areas leads to long-lasting hard-to-heal ulcer wounds that are also characterized by neutrophil infiltration. The presented experiment was set up to mimic this condition by applying magnet-induced pressure onto mouse skin folds. Since the area of emerging wounds is variable in form and size, its usability as a readout parameter is technically limited.
METHODS: Magnet placement leads to wounds with dermal neutrophil infiltration and delayed wound healing. Three ischemia-reperfusion (IR) cycles (12 hours on, 12 hours off) were applied in each animal to initiate decubitus ulcer formation.
On day 0 (start of experiment), the mice were weighed and put in anesthesia using an isoflurane/O2/N2O mixture. Back and flank skin was shaven. Skin was moistened with tap water and depilated using Pilca cream. Skin was lifted at the back midline and one magnet was placed on each side of the skin fold so that they were exactly opposite to each other. The magnets were left in place for 12 hours, then taken off for 12 hours. This cycle was repeated three times in total.
After sacrificing (day 15) wounds were excised using a 10 mm punch scalpel.
(§2) To assess the content of collagen type I (mature form) and collagen type III (newly formed) in ulcer tissue, Sirius red staining was performed according to standard protocols.

myeloperoxidase (MPO) = assay: Myeloperoxidase (MPO) activity in wound tissue of diabetic mice (db/db); type: in vivo; conditions: db/db mouse
Method: MPO determination is based on the oxidation of H2O2 by a peroxidase in the presence of TMB (3,3′5,5′-Tetramethylbenzidin). The results were quantified with a human MPO standard curve prepared in homogenate buffer, which also serves as a blank. Samples were diluted fifteen fold in homogenate buffer. Of each sample, standard and blank 20 μL were dispensed in a clear flat bottom MWP at RT. Following that 100 μL of fresh 0.2 mM TMB in AC-POX buffer are added and the reaction was started by adding 12.5 μL of 1 mM H2O2 in AC-POX buffer. After 5-10 min 22.5 μL of 1 N H2SO4 was added to stop the reaction and plates were vortexed briefly to evenly distribute the newly developed yellow color. […] Absorption was measured at k=450 nm and the amount of MPO in samples was calculated from standard curve in SoftmaxPro 6.4 after subtracting the blank.
To assess neutrophil activity in wound tissue samples, myeloperoxidase activity was measured.

[2] = tested on: collagen type I and collagen type III in ulcer tissue; assay: Collagen type I and III in chronic skin lesions of adriamycin-treated rats, Sirius red staining; type: in vivo, rat; conditions: for Collagen type I / Collagen type III: adriamycin-treated rats, 10 mg/kg BW o.d.
Source text: as §1
After sufficient time in formalin (24-72 h), the samples were trimmed to an appropriate size and transferred to histology-cassettes. The histo-cassettes are watered 2 h under running tap water at room temperature. The drainage and waxing was done using a Leica ASP200, the samples were embedded in paraffin, sectioned by microtome and mounted on slides. The paraffin sections were stained depending on the question (Ladewig or Sirius Red)
as §2

[3] = tested on: wounds of diabetic mouse (db/db); assay: Visual wound size reduction in diabetic mouse (db/db); type: in vivo
Method: The wounding was conducted in the following manner: • 1) db/db mice were anaesthetized with Isoflurane/O2/N2O (2.5-3.5%/800 ml/min/500 ml/min), and placed on a heating pad upon induction after application of eye ointment • 2) mice were shaven and Pilca was applied for 3-5 minutes to remove the fur and fine hairs 3) two dorsal full thickness wounds were placed with a 8 mm punch biopsie tool after wiping the skin with ethanol and wound size was measured immediately • 4) mice were treated with Temgesic and kept on warming pad until recovery from anaesthesia
Wound Size Measurement: Wound size was measured with a sliding caliper. […] Assuming an elliptic shape, wound area was calculated with:
Wound size reduction on day i was calculated from the initial area on day 0 post wounding: […]

[4] = tested on: collagen (hydroxyproline); assay: Hydroxyproline (HYP) assay in skin lesions of adriamycin-treated rats; type: in vivo, rat; conditions: 10 mg/kg BW o.d. p.o.
Source text: as §1

With CC1=C(C#N)[C@@H](c2ccc(C#N)cc2S(C)(=O)=O)N(C)C(=O)N1c1cccc(C(F)(F)F)c1 [Example 5, (4 S)-4-[4-Cyano-2-(methylsulfonyl)phenyl]-3,6-dimethyl-2-oxo-1-[3-(trifluoromethyl)phenyl]-1,2,3,4-tetrahydropyrimidine-5-carbonitrile] the Ladewig score (collagen in ulcer tissue) was −1.38 (n = 8), the “Collagen type III in pressure-induced lesions (in words)” value ([1]; mice, after 12 days of treatment) was “significant increase of collagen type III” and the “Collagen type I” value ([1]; 1 mg/kg BW o.d.) was 1.1. The “Collagen type III” value ([1]; 1 mg/kg BW o.d.) was 30.2, the “Collagen type I” value ([1]; 10 mg/kg BW o.d.) was 0.7 and the “Collagen type III” value ([1]; 10 mg/kg BW o.d.) was 49.8. The “Neutrophil dependent inflammatory activity in wound tissue (MPO activity)” value (myeloperoxidase (MPO); 0.03 mg/kg BW o.d.) was 0.00361 Peroxidase Activity/μg Protein, the “Neutrophil dependent inflammatory activity in wound tissue (MPO activity)” value (myeloperoxidase (MPO); 0.1 mg/kg BW o.d.) was 0.00029 Peroxidase Activity/μg Protein and the “Neutrophil dependent inflammatory activity in wound tissue (MPO activity)” value (myeloperoxidase (MPO); 0.3 mg/kg BW o.d.) was 0.00043 Peroxidase Activity/μg Protein. For the same compound, the “Neutrophil dependent inflammatory activity in wound tissue (MPO activity)” value (myeloperoxidase (MPO); 1.0 mg/kg BW o.d.) was 0.00043 Peroxidase Activity/μg Protein, the “Neutrophil dependent inflammatory activity in wound tissue (MPO activity)” value (myeloperoxidase (MPO); 3.0 mg/kg BW o.d.) was 0.00027 Peroxidase Activity/μg Protein and the “Neutrophil dependent inflammatory activity in wound tissue (MPO activity)” value (myeloperoxidase (MPO); 10.0 mg/kg BW o.d.) was 0.00016 Peroxidase Activity/μg Protein. The “Inhibition of MPO activity in wound tissue (in words)” value (myeloperoxidase (MPO); from 0.1 mg/kg) was “potently and effectively inhibited MPO activity in wound tissue”, the “Collagen type I” value ([2]; d 14-28, Sirius red) was 9.7 and the “Collagen type III” value ([2]; d 14-28, Sirius red) was 46.69. The “Collagen type I” value ([2]; d 21-37, Sirius red) was 8.8, the “Collagen type III” value ([2]; d 21-37, Sirius red) was 72.23 and the “Collagen type III in Adriamycin-induced lesions (in words)” value ([2]; rats, after two weeks of treatment) was “strong increase of collagen type III”. For the same compound, the Visual wound size ([3]; 0.03 mg/kg BW o.d. p.o.) was 98.5 % initial area at day 8, the Visual wound size ([3]; 0.1 mg/kg BW o.d. p.o.) was 86.07 % initial area at day 8 and the Visual wound size ([3]; 0.3 mg/kg BW o.d. p.o.) was 72 % initial area at day 8. For the same compound, the Visual wound size ([3]; 1.0 mg/kg BW o.d. p.o.) was 71.16 % initial area at day 8, the Visual wound size ([3]; 3.0 mg/kg BW o.d. p.o.) was 68.1 % initial area at day 8 and the Visual wound size ([3]; 10.0 mg/kg BW o.d. p.o.) was 54.85 % initial area at day 8. The EC50 ([3]; in vivo, read-out: Potency (EC50) to improve wound size reduction) was 4.5 nM and the Hydroxyproline [4] was 5169 (n = 10).
